Measured values from article PMC12418948, “Intranasal Administration of KCNN2 Blocking Peptide Improves Deficits in Cognitive Flexibility in Mouse Model of Fetal Alcohol Spectrum Disorders” (International Journal of Neuropsychopharmacology, 2025).
Positions of bridges follow the written chain, without caps; N, C: chain ends. Residues, ends and D or L forms follow the SMILES beside them. No end group written: not given here.

Columns and labels:
KCNN (SK) channel = conditions: cited from earlier work
[1] = pregnant CD-1 mice, i.p. 4.0 g/kg/day 25% ethanol at E16 and E17; from 30 minutes after injection at E16 to 1 hour after injection at E17; cited from earlier work
Method: All mice (CD-1) used in this study were purchased from Charles River Laboratories and were maintained in-house on a light–dark cycle (lights on 6:00 AM to 6:00 PM) at a constant temperature (22 ± 1°C). Pregnant mice received i.p. injections of 25% ethanol in PBS at 4.0 g/kg/day or PBS only as the control at embryonic day (E) 16 and E17. The dam’s blood alcohol concentration ranges from approximately 140 to 300 mg/dL (from 30 minutes after injection at E16 to 1 hour after injection at E17).[35] All procedures were approved by the institutional animal care and use committee of the Children’s Nat ...

[2] = i.p. administration, PAE mice; cited from earlier work
Source text: KCNN2 plays a key role in regulating neuronal excitability by controlling the medium afterhyperpolarization.[20] Previous studies have shown that KCNN2 blockers have therapeutic effects to improve learning and memory in several mouse and rat models of neuropsychiatric disorders associated with increased KCNN2 expression.[21–24]

human KCNN2 = human KCNN2 (Homo sapiens, UniProt Q9H2S1); assay: Thallium flux assay, KCNN2 channel block; assay type: cell-based; conditions: HEK293 stably expressing human KCNN2; thallium flux, FLIPR Potassium Assay Kit, FLIPR TETRA; 4 concentrations, n = 4; 0% = 1 μM A23187, 100% = 3 μM UCL1684
human KCNN2, sequence (Q9H2S1 whole entry): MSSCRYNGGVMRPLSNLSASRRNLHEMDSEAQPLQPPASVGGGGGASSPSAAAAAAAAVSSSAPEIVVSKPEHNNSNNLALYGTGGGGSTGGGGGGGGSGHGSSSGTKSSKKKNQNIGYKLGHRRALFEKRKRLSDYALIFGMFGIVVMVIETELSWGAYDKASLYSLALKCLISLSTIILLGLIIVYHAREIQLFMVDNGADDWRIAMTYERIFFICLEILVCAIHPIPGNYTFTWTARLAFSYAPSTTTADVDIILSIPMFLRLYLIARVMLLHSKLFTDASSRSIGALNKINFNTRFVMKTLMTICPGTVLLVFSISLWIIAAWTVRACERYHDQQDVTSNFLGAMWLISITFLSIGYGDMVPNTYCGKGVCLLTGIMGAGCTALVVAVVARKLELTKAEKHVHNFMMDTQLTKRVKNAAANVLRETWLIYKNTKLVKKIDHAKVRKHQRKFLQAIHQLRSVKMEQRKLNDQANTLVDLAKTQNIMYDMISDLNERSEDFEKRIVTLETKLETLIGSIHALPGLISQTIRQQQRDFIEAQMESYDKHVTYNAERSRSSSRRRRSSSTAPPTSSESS
Method: The effect of tamapin and Lei-Dab7 to block the KCNN2 channel was assessed by the thallium flux (potassium ion surrogate) assay using FLIPR Potassium Assay KIT (Molecular Devices, CA) and a FLIPR TETRA fluorescence imaging plate reader (Molecular Devices, CA). Human embryonic kidney (HEK) 293 cell line stably expressing human KCNN2 (Charles River, MA) were plated on BioCoat Poly-D-Lysine 384-well Black/Clear Plates (BD Biosciences, NJ) at 15 000 to 30 000 cells per well and incubated at 37°C overnight or until cells form near confluent monolayer. A baseline fluorescence was recorded during the pre-incubation period, followed by activation in the stimulus buffer (K^+-free buffer with 5 mM Tl^+). The effects of tamapin and Lei-Dab7 on KCNN2 to inhibit KCNN2 channel were evaluated at 4 different concentrations (n = 4) each, based on fluorescence changes due to the treatments. The signal elicited by the respective positive control agonist [1 μM A23187 (Tocris, UK)] was set to 0% inhibition, and the signal in the presence of the respective positive control antagonists [3 μM UCL1684 (Tocris, UK)] was set to 100% inhibition. The IC50 values were defined as the concentration at which the percent inhibition equals 50.
To determine the dose of Lei-Dab7 to be tested, we compared the effect of Lei-Dab7 and tamapin in blocking human KCNN2 expressed in HEK293 cells using a thallium-based potassium ion channel assay. […] Based on the effective dose of tamapin in mitigating motor skill–learning deficits in PAE mice (15 μg/kg body weight via i.p.)[17] and higher brain uptake of therapeutics by intranasal delivery than by i.p. delivery, we chose a dose of 3.0 μg/kg body weight to test the effect of intranasal administration of Lei-Dab7.
Supplementary Figure 3. Concentration-response relationships of Lei-Dab7 and Tamapin on the Inhibition of KCNN2 channels. (A, B) The concentration-response relationships of Lei-Dab7 (A) and Tamapin (B) on the inhibition of KCNN2 (SK2) channels examined by the thallium flux assay are presented. […]

rat = system: rat; parameters: method as in 2 sources, one per row (each row's own in cited_ref): ref 82 = [82]; PMID 15985330; doi:10.1016/j.neulet.2005.05.050; 82. Deschaux O , Bizot JC . Apamin produces selective improvements of learning in rats . Neurosci Lett. 2005; 386 : 5 – 8 . 10.1016/j.neulet.2005.05.050 15985330 ||| ref 26, 82, 83 = [26]; PMID 18561910; doi:10.1016/j.ejphar.2008.05.019; 26. Mpari B , Sreng L , Regaya I , Mourre C . Small-conductance Ca(2+)-activated K(+) channels: heterogeneous affinity in rat brain structures and cognitive modulation by specific blockers . Eur J Pha || [82]; PMID 15985330; doi:10.1016/j.neulet.2005.05.050; 82. Deschaux O , Bizot JC . Apamin produces selective improvements of learning in rats . Neurosci Lett. 2005; 386 : 5 – 8 . 10.1016/j.neulet.2005.05.050 15985330 || [83]; PMID 9148239; doi:10.1016/s0304-3940(97)13367-5; 83. Deschaux O , Bizot JC , Goyffon M . Apamin improves learning in an object recognition task in rats . Neurosci Lett. 1997; 222 : 159 – 162 . 10.1016/s0304-3940(97)13367-5 9148239; conditions: cited from earlier work
KCNN2 = conditions: compared with Lei-Dab7; cited from earlier work
Source text: KCNN2 plays a key role in regulating neuronal excitability by controlling the medium afterhyperpolarization.[20] Previous studies have shown that KCNN2 blockers have therapeutic effects to improve learning and memory in several mouse and rat models of neuropsychiatric disorders associated with increased KCNN2 expression.[21–24] […] In the current study, we used another KCNN2 blocker, Lei-Dab7 (a synthetic derivative of leiurotoxin), a peptide isolated from the venom of the yellow scorpion (L. quinquestriatus hebraeus). […] We evaluated intranasal administ ... || Taken together, our findings advocate for the therapeutic potential of Lei-Dab7 or other KCNN2 blockers for FASD and possibly other neurodevelopmental diseases that similarly involve KCNN2 upregulation, such as Angelman syndrome.[21] Lei-Dab7 stands out for its high potency and specificity in blocking the KCNN2 channel. […] Despite outstanding properties, Lei-Dab7’s bioavailability, efficacy, and toxicity as a the ...

[3] = system: older adults affected by Alzheimer disease or mild cognitive impairment; conditions: intranasal; older adults with Alzheimer disease or mild cognitive impairment; cited from earlier work
Source text: (§1) The potential of intranasal delivery in treating a broad spectrum of neurological disorders, especially those related to memory and cognition, is noteworthy.[28] Historically, intranasal administration has gained attention in clinical trials as an effective delivery method, especially for small molecules ...

[4] = intranasal vs subcutaneous or intramuscular administration; cited from earlier work
Source text: as §1

[5] = system: neurodevelopmental disorders such as autism spectrum disorder; conditions: nasal application; cited from earlier work
Source text: as §1

## c1cc2cc(c1)C[n+]1ccc(c3ccccc31)NCc1ccc(cc1)CNc1cc[n+](c3ccccc13)C2 [UCL 1684]
KCNN (SK) channel
  KCNN (SK) channel blocking specificity: nonspecific KCNN (SK) channel blockers

## c1ccc2c(c1)c1cc[n+]2CCCCC[n+]2ccc(c3ccccc32)NCCCCCN1 [UCL 1848]
KCNN (SK) channel
  KCNN (SK) channel blocking specificity: nonspecific KCNN (SK) channel blockers

## CN1CCc2cc3c(cc2[C@H]1[C@@H]1OC(=O)c2c1ccc1c2OCO1)OCO3 [bicuculline]
KCNN (SK) channel
  KCNN (SK) channel blocking specificity: nonspecific KCNN (SK) channel blockers

## CCO [ethanol]
[1]
  dam's blood alcohol concentration: 140 to 300 mg/dL

## CC[C@H](C)[C@@H]1NC(=O)[C@@H]2CSSC[C@H](NC(=O)[C@H](Cc3ccccc3)NC(=O)[C@H](C)N)C(=O)N[C@@H](CC(N)=O)C(=O)N[C@@H](CC(C)C)C(=O)N[C@@H](CCCNC(=N)N)C(=O)N[C@@H](CCCNC(=N)N)C(=O)N[C@H]3CSSC[C@H](NC(=O)[C@H](CCC(=O)O)NC(=O)[C@H](CCC(=O)O)NC(=O)CNC1=O)C(=O)N[C@@H](CCCCN)C(=O)N[C@H](C(=O)N[C@H](C(=O)N1CCC[C@H]1C(=O)N[C@@H](Cc1ccc(O)cc1)C(N)=O)C(C)C)CSSC[C@H](NC(=O)[C@H](CO)NC(=O)[C@H](CC(C)C)NC(=O)[C@H](CCC(=O)O)NC3=O)C(=O)N[C@@H](CCCNC(=N)N)C(=O)N[C@@H](CO)C(=O)N[C@@H](CC(C)C)C(=O)NCC(=O)N[C@@H](CC(C)C)C(=O)N[C@@H](CC(C)C)C(=O)NCC(=O)N[C@@H](CCCCN)C(=O)N2 [tamapin] (H-AFCNLRRCELSCRSLGLLGKCIGEECKCVPY-NH2; disulfide 3-21, 8-26, 12-28)
[2]
  crosses the blood brain barrier: crosses the blood brain barrier
Human KCNN2
  IC50: 50 nM

## apamin (CNCKAPETALCARRCQQH-NH2; disulfide 1-11, 3-15; UniProt P01500 28-45, looked up)
rat
  effect on learning: promote learning
KCNN2
  KCNN2 selectivity in words: less selective KCNN2 blocker
KCNN (SK) channel
  KCNN (SK) channel blocking specificity: nonspecific KCNN (SK) channel blockers

## insulin
[3]
  memory effect: improving memory

## mouse [D-Leu-4]OB3 [synthetic leptin-like peptide]
[4]
  brain bioavailability, intranasal vs other methods (times): 4 times

## oxytocin
[5]
  efficacy, repeated doses: inconsistent
  efficacy, single administration: promising

## scyllatoxin (AFCNLRMCQLSCRSLGLLGKCIGDKCECVKH; UniProt P16341 1-31, looked up)
KCNN (SK) channel
  KCNN (SK) channel blocking specificity: nonspecific KCNN (SK) channel blockers
